Measured values: patent publication EP4722219A1 (Gan & Lee Pharmaceuticals Co., Ltd., priority 2023, dated 2024)

Tests used:
Type in all cases: cell-based
LNCaP cells = assay: Inhibition of LNCaP cell proliferation (WST-8); details: Homo sapiens, LNCaP FGC cells, 96 hours
Method: The inhibitory activity of compounds disclosed in the present invention on LNCaP cell proliferation
The cells were cultured overnight in a 37°C, 5% CO2 cell incubator. […] The final concentration of the compound was 9 concentration points of 5-fold serial dilution starting from 10 µM. […] The cells were cultured in a cell culture incubator at 37°C and 5% CO2 for 96 hours. On the sixth day, the 96-well cell culture plate was removed, and 1/10 volume of WST-8 (Beytime, C0040) reagent was added to each well. The absorbance at 450 nm was detected using a microplate reader (TECAN, F50).

VCaP cells = assay: Inhibition of VCaP cell proliferation (WST-8); details: Homo sapiens, 168 hours
Method: On the first day of the experiment, VCaP cells were seeded at a density of 15,000 cells/well in a 96-well plate using DMEM medium containing 10% fetal bovine serum, with 100µL of cell suspension per well, and cultured overnight in a cell incubator at 37°C and 5% CO2. On the second day, 100µL of the compound of the present invention and the positive control ARV-110 (source: Anaiji) prepared in culture medium at different concentrations were added to each well. The final concentration of the compound was 9 concentration points of 5-fold serial dilution starting from 10 µM. […] On the ninth day, the 96-well cell culture plate was removed and 1/10 volume of WST-8 (Beytime, C0040) reagent was added to each well. The absorbance at 450nm was measured using a microplate reader (TECAN, F50).

AR protein = target: T1, AR protein (Homo sapiens, UniProt P10275, T878A); assay: AR protein degradation in LNCaP cells (Western blot); details: 8 hours; for percent AR protein degradation at a fixed concentration at 0.01 µM / Degradation of AR protein in LNCaP cells, 10 nM (%): 10 nM; for percent AR protein degradation at a fixed concentration at 0.1 µM / Degradation of AR protein in LNCaP cells, 100 nM (%): 100 nM
T1 construct: host or cells: LNCaP FGC
T1 sequence (P10275 1-920 T878A): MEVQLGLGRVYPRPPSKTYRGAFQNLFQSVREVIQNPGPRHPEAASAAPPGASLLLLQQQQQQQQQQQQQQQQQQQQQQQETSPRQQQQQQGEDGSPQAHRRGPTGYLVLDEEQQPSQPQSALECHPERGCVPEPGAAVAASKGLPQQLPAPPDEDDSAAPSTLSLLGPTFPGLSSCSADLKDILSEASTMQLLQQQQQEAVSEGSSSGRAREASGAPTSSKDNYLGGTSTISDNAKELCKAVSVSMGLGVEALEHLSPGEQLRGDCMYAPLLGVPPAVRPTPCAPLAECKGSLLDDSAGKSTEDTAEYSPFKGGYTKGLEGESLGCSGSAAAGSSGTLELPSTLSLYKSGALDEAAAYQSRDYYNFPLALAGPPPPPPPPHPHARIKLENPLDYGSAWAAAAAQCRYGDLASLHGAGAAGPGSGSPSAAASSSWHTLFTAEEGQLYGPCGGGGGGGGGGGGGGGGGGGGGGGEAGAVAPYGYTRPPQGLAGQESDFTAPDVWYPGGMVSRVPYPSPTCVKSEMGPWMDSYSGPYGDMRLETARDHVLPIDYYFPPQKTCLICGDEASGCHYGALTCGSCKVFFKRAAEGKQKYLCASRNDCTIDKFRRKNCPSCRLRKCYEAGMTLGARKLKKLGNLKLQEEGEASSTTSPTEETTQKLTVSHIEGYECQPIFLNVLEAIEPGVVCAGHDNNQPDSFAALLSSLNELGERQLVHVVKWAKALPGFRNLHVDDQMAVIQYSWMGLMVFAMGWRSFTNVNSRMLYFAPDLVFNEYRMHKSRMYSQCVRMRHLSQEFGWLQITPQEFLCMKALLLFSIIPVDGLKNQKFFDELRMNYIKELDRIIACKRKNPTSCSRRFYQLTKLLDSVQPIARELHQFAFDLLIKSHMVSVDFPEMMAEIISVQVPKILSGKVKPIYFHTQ
In short: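 LNCaP cells exposed to compound or solvent control for 8 h, lysed in RIPA, protein normalized by BCA. AR detected by SDS-PAGE/Western blot with infrared imaging; band grayscale normalized to GAPDH to calculate AR degradation rate.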

| SMILES | IC50 (LNCaP cells) [µM] | IC50 (VCaP cells) [µM] | percent AR protein degradation at a fixed concentration at 0.01 µM (AR protein) [%] | percent AR protein degradation at a fixed concentration at 0.1 µM (AR protein) [%] | Degradation of AR protein in LNCaP cells, 10 nM (%) (AR protein) | Degradation of AR protein in LNCaP cells, 100 nM (%) (AR protein) |
| --- | --- | --- | --- | --- | --- | --- |
| C[C@H]1CC2(CCN(c3ccc(N4CCC(CN5CCN6c7ccc(C(=O)N[C@H]8CCC(=O)NC8=O)c(F)c7OC[C@H]6C5)CC4)cc3)CC2)CN1c1ccc(C#N)c(Cl)c1 [A-P-61, (R)-3-((1-(4-((S)-2-(3-chloro-4-cyanophenyl)-3-methyl-2,8-diazaspiro[4.5]decan-8-yl)phenyl)piperidin-4-yl)methyl)-N-((S)-2,6-dioxopiperidin-3-yl)-7-fluoro-1,2,3,4,4a,5-hexahydrobenzo[b]pyrazi no[1,2-d][1,4]oxazine-8-carboxamide] | 0.21 | 0.19 | 24 | 79 | – | – |
| N#Cc1cc2c(cc1Cl)OCC1(CCN(C(=O)c3ccc(N4CCC(CN5CCC6(CCc7cc(C(=O)N[C@H]8CCC(=O)NC8=O)c(F)cc7O6)CC5)CC4)cc3)CC1)O2 [A-P-44, (S)-1'-((1-(4-(6-chloro-7-cyano-3H-spiro[benzo[b][1,4]dioxane-2,4'-piperidin]-1'-carbonyl)phenyl)piperidin-4-yl)methyl)-N-(2,6-dioxopiperidin-3-yl)-7-fluorospiro[chroman-2,4'-piperidin]-6-carboxamide] | 0.24 | 2.89 | 20 | 9 | – | – |
| COc1cc(O[C@H]2C(C)(C)[C@H](NC(=O)c3ccc(N4CCC(CN5CCC6(CC5)COc5c6ccc(C(=O)N[C@H]6CCC(=O)NC6=O)c5OC)CC4)cc3)C2(C)C)ccc1C#N [A-P-78, 1'-((1-(4-(((1r,3r)-3-(4-cyano-3-methoxyphenoxy)-2,2,4,4-tetramethylcyclobutyl)carbamoyl)phenyl)piperidin-4-yl)methyl)-N-((S)-2,6-dioxopiperidin-3-yl)-7-methoxy-2H-spiro[benzofuran-3,4'-piperidine]-6-carboxamide] | 50.7 | > 10 | – | – | -2 | 14 |
| COc1cc2c(cc1C(=O)N[C@H]1CCC(=O)NC1=O)OCC21CCN(CC2CCN(c3ccc(N4CCC5(CC4)C[C@H](C)N(c4ccc(C#N)c(Cl)c4)C5)cc3)CC2)CC1 [A-P-80, 1'-((1-(4-((S)-2-(3-chloro-4-cyanophenyl)-3-methyl-2,8-diazaspiro[4.5]decan-8-yl)phenyl)piperidin-4-yl)methyl)-N-((S)-2,6-dioxopiperidin-3-yl)-5-methoxy-2H-spiro[benzofuran-3,4'-piperidin]-6-carboxamide] | 1.94 | 0.051 | 22 | 73 | – | – |
| N#Cc1cc2c(cc1Cl)CC1(CCN(c3ccc(C(=O)N4CCC(CN5CCC6(CCc7cc(C(=O)N[C@H]8CCC(=O)NC8=O)c(F)cc7O6)CC5)CC4)cc3)CC1)CO2 [A-P-51] | 3.36 | 8.44 | -23 | 12 | – | – |
| COc1cc2c(cc1C(=O)N[C@H]1CCC(=O)NC1=O)C1(CCN(CC3CCN(c4ccc(N5CCC6(CC5)C[C@H](C)N(c5ccc(C#N)c(Cl)c5)C6)cc4)CC3)CC1)CO2 [A-P-81, 1'-((1-(4-((S)-2-(3-chloro-4-cyanophenyl)-3-methyl-2,8-diazaspiro[4.5]decan-8-yl)phenyl)piperidin-4-yl)methyl)-N-((S)-2,6-dioxopiperidin-3-yl)-6-methoxy-2H-spiro[benzofuran-3,4'-piperidin]-5-carboxamide] | 14.5 | 1.79 | -15 | 30 | – | – |
| COc1cc2c(cc1C(=O)N[C@H]1CCC(=O)NC1=O)CCC1(CCN(CC3CCN(c4ccc(N5CCC6(CC5)C[C@H](C)N(c5ccc(C#N)c(Cl)c5)C6)cc4)CC3)CC1)O2 [A-P-54] | 0.91 | 0.007 | – | – | 40 | 74 |
